Measurements from US11702404B2, “GLP-1R modulating compounds” (priority 2019, dated 2023).
Where two headings read alike, the source gives them in different places.

Legend:
[1] = Microsomal stability, human liver microsomes (predicted hepatic clearance); conditions: predicted from in vitro microsomal stability data
[2] = biological target: GLP-1R (Homo sapiens, UniProt P43220); assay: GLP-1R activation: cAMP increase in CHO cells stably expressing GLP-1R; assay type: cell-based
[3] = cAMP increase, CHO cells stably expressing GLP-1R, 10 point dose response, 30 minutes incubation, read-out: EC50

Sequence of GLP-1R (P43220 24-463): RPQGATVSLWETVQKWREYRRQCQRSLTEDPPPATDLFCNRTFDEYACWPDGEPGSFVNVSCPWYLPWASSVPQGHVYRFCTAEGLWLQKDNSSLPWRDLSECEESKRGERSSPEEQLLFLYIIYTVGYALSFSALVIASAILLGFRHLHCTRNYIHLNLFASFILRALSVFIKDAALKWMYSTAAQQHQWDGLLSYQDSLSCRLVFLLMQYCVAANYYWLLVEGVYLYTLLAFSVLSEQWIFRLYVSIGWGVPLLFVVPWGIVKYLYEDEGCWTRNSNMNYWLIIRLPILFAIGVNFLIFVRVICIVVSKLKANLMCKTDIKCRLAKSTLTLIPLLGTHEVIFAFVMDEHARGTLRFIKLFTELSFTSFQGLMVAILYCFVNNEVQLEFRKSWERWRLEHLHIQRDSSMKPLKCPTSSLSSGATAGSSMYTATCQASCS

Row | SMILES | Predicted Hepatic Clearance (Pred. Cl.) [1] | EC50 [2, 3] | EC50 ([2]; EC50 (nM)) | EC50 ([2]; read-out: EC50)
1 | N#Cc1ccc(COc2cccc(-c3ccc(Cc4nc5ccc(C(=O)O)cc5n4[C@H]4CCOC4)c(F)c3)n2)c(F)c1 [Example 204, (S)-2-(4-(6-((4-cyano-2-fluorobenzyl)oxy)pyridin-2-yl)-2-fluorobenzyl)-1-(tetrahydrofuran-3-yl)-1H-benzo[d]imidazole-6-carboxylic acid] | 5.33 mL/min/kg | 7.37 nM |  | 
2 | COCCn1c(Cc2ccc(-c3cccc(OCc4cc(C(C)C)ccc4F)n3)cc2F)nc2ccc(C(=O)O)cc21 [Example 141, 2-(2-fluoro-4-(6-((2-fluoro-5-isopropylbenzyl)oxy)pyridin-2-yl)benzyl)-1-(2-methoxyethyl)-1H-benzo[d]imidazole-6-carboxylic acid] | 5.5 mL/min/kg | 80.3 nM |  | 
3 | N#Cc1ccc(COc2cccc(-c3cc(F)c(Cc4nc5ccc(C(=O)O)cc5n4Cc4ncco4)cc3F)n2)c(F)c1 [Example 605, 2-(4-(6-((4-cyano-2-fluorobenzyl)oxy)pyridin-2-yl)-2,5-difluorobenzyl)-1-(oxazol-2-ylmethyl)-1H-benzo[d]imidazole-6-carboxylic acid] | 5 mL/min/kg | 1.57 nM |  | 
4 | CO[C@H]1COC[C@H]1n1c(Cc2cc(F)c(-c3cccc(OCc4ccc(C#N)cc4F)n3)cc2F)nc2ccc(C(=O)O)cc21 (single isomer, unassigned) [Example 890, 2-(4-(6-((4-cyano-2-fluorobenzyl)oxy)pyridin-2-yl)-2,5-difluorobenzyl)-1-(cis-4-methoxytetrahydrofuran-3-yl)-1H-benzo[d]imidazole-6-carboxylic acid] | 5.17 mL/min/kg | 0.49 nM |  | 
5 | COCCn1c(Cc2ccc(-c3ccc(N)c(OCc4ccc(C#N)cc4F)c3)cc2F)nc2ccc(C(=O)O)cc21 [Example 82, 2-((4′-amino-3′-((4-cyano-2-fluorobenzyl)oxy)-3-fluoro-[1,1′-biphenyl]-4-yl)methyl)-1-(2-methoxyethyl)-1H-benzo[d]imidazole-6-carboxylic acid] | 3.67 mL/min/kg | 264 nM |  | 
6 | COCCn1c(Cc2ccc(-c3cccc(OCc4ccc(C#N)cc4F)n3)c(F)c2C#N)nc2ccc(C(=O)O)cc21 [Example 391, 2-(2-cyano-4-(6-((4-cyano-2-fluorobenzyl)oxy)pyridin-2-yl)-3-fluorobenzyl)-1-(2-methoxyethyl)-1H-benzo[d]imidazole-6-carboxylic acid] | 5.42 mL/min/kg | ≥ 1000 nM |  | 
7 | COCCn1c(Cc2ccc(-c3cccc(OCc4ccccc4SC(F)(F)F)n3)cc2F)nc2ccc(C(=O)O)cc21 [Example 248, 2-(2-fluoro-4-(6-((2-((trifluoromethyl)thio)benzyl)oxy)pyridin-2-yl)benzyl)-1-(2-methoxyethyl)-1H-benzo[d]imidazole-6-carboxylic acid] | 17.8 mL/min/kg | 3560 nM |  | 
8 | N#Cc1cc(F)c(COc2cccc(-c3cc(F)c(Cc4nc5c(F)cc(C(=O)O)cc5n4Cc4ncco4)cc3F)n2)cc1F [Example 784] | 1.83 mL/min/kg | 0.55 nM |  | 
9 | O=C(O)c1cc(F)c2nc(Cc3cc(F)c(-c4ccc(F)c(OCc5ccc(C(F)F)cc5F)n4)cc3F)n(C[C@@H]3CCO3)c2c1 [Example 767] | 1.83 mL/min/kg | 0.51 nM |  | 
10 | N#Cc1ccc(COc2cccc(-c3cc(F)c(Cc4nc5ccc(C(=O)O)cc5n4Cc4ccc[nH]c4=O)cc3F)n2)c(F)c1 [Example 312, 2-(4-(6-((4-cyano-2-fluorobenzyl)oxy)pyridin-2-yl)-2,5-difluorobenzyl)-1-((2-oxo-1,2-dihydropyridin-3-yl)methyl)-1H-benzo[d]imidazole-6-carboxylic acid] | 4.67 mL/min/kg | 250 nM |  | 
11 | COCCn1c(Cc2ccc(-c3cccc(OCc4cccc(=O)n4C)n3)cc2F)nc2ccc(C(=O)O)cc21 [Example 373, 2-(2-fluoro-4-(6-((1-methyl-6-oxo-1,6-dihydropyridin-2-yl)methoxy)pyridin-2-yl)benzyl)-1-(2-methoxyethyl)-1H-benzo[d]imidazole-6-carboxylic acid] | 19.5 mL/min/kg | 4770 nM |  | 
12 | COCCn1c(Cc2ccc(-c3cccc(OCc4ccc(C#N)cc4F)n3)c(C)c2)nc2ccc(C(=O)O)cc21 [Example 21, 2-(4-(6-((4-cyano-2-fluorobenzyl)oxy)pyridin-2-yl)-3-methylbenzyl)-1-(2-methoxyethyl)-1H-benzo[d]imidazole-6-carboxylic acid] | <1.83 mL/min/kg |  | 70.9 nM | 
13 | O=C(O)c1cc(F)c2nc(Cc3cc(F)c(-c4cccc(OCc5ccc(C(F)F)cc5F)n4)cc3F)n(CC34CC(CO3)C4)c2c1 [Example 669] | 1.83 mL/min/kg | 0.28 nM |  | 
14 | N#Cc1ccc(COc2cccc(-c3ccc(Cc4nc5ccc(C(=O)O)cc5n4C[C@@H]4CCN4C4COC4)c(F)c3)n2)c(F)c1 [Example 395, (S)-2-(4-(6-((4-cyano-2-fluorobenzyl)oxy)pyridin-2-yl)-2-fluorobenzyl)-1-((1-(oxetan-3-yl)azetidin-2-yl)methyl)-1H-benzo[d]imidazole-6-carboxylic acid] | <1.83 mL/min/kg |  |  | 42.3 nM
15 | CNC(=O)C(Cn1c(Cc2ccc(-c3cccc(OCc4ccc(C#N)cc4F)n3)cc2F)nc2ccc(C(=O)O)cc21)OC (single isomer, unassigned) [Example 337, 2-(4-(6-((4-cyano-2-fluorobenzyl)oxy)pyridin-2-yl)-2-fluorobenzyl)-1-(2-methoxy-3-(methylamino)-3-oxopropyl)-1H-benzo[d]imidazole-6-carboxylic acid] | 4.83 mL/min/kg | 13.7 nM |  | 
16 | COCCn1c(Cc2ccc(-c3nc(OCc4ccc(C#N)cc4F)ccc3Cl)cc2F)nc2ccc(C(=O)O)cc21 [Example 115, 2-[[4-[3-chloro-6-[(4-cyano-2-fluoro-phenyl)methoxy]-2-pyridyl]-2-fluoro-phenyl]methyl]-3-(2-methoxyethyl)benzimidazole-5-carboxylic acid] | 8.3 mL/min/kg | 80.9 nM |  | 
17 | COCCn1c(Cc2c(F)cc(-c3cccc(OCc4ccc(C#N)cc4F)n3)c(F)c2F)nc2ccc(C(=O)O)cc21 [Example 401, 2-(4-(6-((4-cyano-2-fluorobenzyl)oxy)pyridin-2-yl)-2,3,6-trifluorobenzyl)-1-(2-methoxyethyl)-1H-benzo[d]imidazole-6-carboxylic acid] | 6.92 mL/min/kg |  | 1.34 nM | 
18 | COCCn1c(Cc2cc(F)c(-c3cccc(OCc4ccc(C#N)cc4COC)n3)cc2F)nc2ccc(C(=O)O)cc21 [Example 844, 2-(4-(6-((4-cyano-2-(methoxymethyl)benzyl)oxy)pyridin-2-yl)-2,5-difluorobenzyl)-1-(2-methoxyethyl)-1H-benzo[d]imidazole-6-carboxylic acid] | 2.5 mL/min/kg | 13 nM |  | 
19 | N#Cc1ccc(COc2cccc(-c3cc(F)c(Cc4nc5ccc(C(=O)O)cc5n4C[C@@H]4CCO4)cc3F)n2)c(OC(F)F)n1 [Example 858, (S)-2-(4-(6-((6-cyano-2-(difluoromethoxy)pyridin-3-yl)methoxy)pyridin-2-yl)-2,5-difluorobenzyl)-1-(oxetan-2-ylmethyl)-1H-benzo[d]imidazole-6-carboxylic acid] | 8.83 mL/min/kg | 2.27 nM |  | 
